From ChEMBL document CHEMBL4699567, “hDM2 protein-binding peptides screened from stapled α-helical peptide phage display libraries with different types of staple linkers” (Bioorg Med Chem Lett, 2020)
Starred links: 1 amine or outer side, 2 acyl side, 3 side chain; linkers in the order of their positions; H or OH if unused. Positions of bridges follow the written chain, without caps; N, C: chain ends. Residues, ends and D or L forms follow the SMILES beside them. *: point of attachment. 5FAM = O=C1OC2(c3ccc(O)cc3Oc3cc(O)ccc32)c2ccc(C(=O)*)cc21; CH2CONH(CH2)4NHCOCH2 = O=C(C[*:1])NCCCCNC(=O)C[*:2]

How the values were obtained:
[1] = biological target: T1, E3 ubiquitin-protein ligase Mdm2 (Homo sapiens, UniProt Q00987); test: Binding affinity to human MDM2 assessed as dissociation constant by fluorescence polarization assay
[2] = biological target: T1, E3 ubiquitin-protein ligase Mdm2; test: Binding affinity to human MDM2 assessed as dissociation constant in presence of 50 uM p53 peptide by fluorescence polarization assay

T1 sequence (Q00987 whole entry): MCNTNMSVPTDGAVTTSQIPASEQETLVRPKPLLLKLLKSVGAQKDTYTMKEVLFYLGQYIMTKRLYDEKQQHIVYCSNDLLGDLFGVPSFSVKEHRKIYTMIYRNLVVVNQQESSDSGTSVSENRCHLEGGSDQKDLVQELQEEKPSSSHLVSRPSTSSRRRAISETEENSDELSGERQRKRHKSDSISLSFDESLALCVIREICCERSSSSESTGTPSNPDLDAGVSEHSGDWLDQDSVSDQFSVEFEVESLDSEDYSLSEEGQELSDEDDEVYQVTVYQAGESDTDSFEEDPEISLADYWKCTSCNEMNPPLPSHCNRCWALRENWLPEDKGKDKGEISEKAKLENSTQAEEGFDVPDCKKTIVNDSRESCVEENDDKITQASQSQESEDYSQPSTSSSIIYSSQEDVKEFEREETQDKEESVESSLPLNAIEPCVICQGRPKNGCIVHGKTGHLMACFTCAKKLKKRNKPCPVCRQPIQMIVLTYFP

| Kd [1] | Kd [2] | Structure (SMILES) |
| --- | --- | --- |
| 178 µM | 571 µM | CSCC[C@H](NC(=O)[C@H](C)NC(=O)CN)C(=O)N[C@@H](CCC(=O)O)C(=O)N[C@H]1CSCC(=O)NCCCCNC(=O)CSC[C@@H](C(=O)N[C@@H](CCCCN)C(=O)N[C@@H](CCCCN)C(=O)N[C@@H](C)C(=O)NCC(=O)NCC(=O)NCC(=O)NCC(=O)N[C@@H](CCCCNC(=O)c2ccc3c(c2)C(=O)OC32c3ccc(O)cc3Oc3cc(O)ccc32)C(N)=O)NC(=O)[C@H](CCC(=O)O)NC(=O)[C@H](CCCCN)NC(=O)[C@H](CCC(=O)O)NC(=O)[C@H](CCCCN)NC(=O)[C@H](CC(C)C)NC(=O)[C@H](Cc2c[nH]c3ccccc23)NC1=O (H-GAMECWLKEKECKKAGGGGK(5FAM)-NH2; linker 5-12 via CH2CONH(CH2)4NHCOCH2) |
| 195 µM | 436 µM | CSCC[C@H](NC(=O)[C@H](C)NC(=O)CN)C(=O)N[C@@H](CCC(=O)O)C(=O)N[C@@H](CS)C(=O)N[C@@H](Cc1c[nH]c2ccccc12)C(=O)N[C@@H](CC(C)C)C(=O)N[C@@H](CCCCN)C(=O)N[C@@H](CCC(=O)O)C(=O)N[C@@H](CCCCN)C(=O)N[C@@H](CCC(=O)O)C(=O)N[C@@H](CS)C(=O)N[C@@H](CCCCN)C(=O)N[C@@H](CCC(N)=O)C(=O)N[C@@H](C)C(=O)NCC(=O)NCC(=O)NCC(=O)NCC(=O)N[C@@H](CCCCNC(=O)c1ccc2c(c1)C(=O)OC21c2ccc(O)cc2Oc2cc(O)ccc21)C(N)=O (H-GAMECWLKEKECKQAGGGGK(5FAM)-NH2) |
| 140 µM | – | CSCC[C@H](NC(=O)[C@H](C)NC(=O)CN)C(=O)N[C@@H](CCC(=O)O)C(=O)N[C@H]1CSCC(=O)NCCCCNC(=O)CSC[C@@H](C(=O)N[C@@H](CCCCN)C(=O)N[C@@H](CCC(N)=O)C(=O)N[C@@H](C)C(=O)NCC(=O)NCC(=O)NCC(=O)NCC(=O)N[C@@H](CCCCNC(=O)c2ccc3c(c2)C(=O)OC32c3ccc(O)cc3Oc3cc(O)ccc32)C(N)=O)NC(=O)[C@H](CCC(=O)O)NC(=O)[C@H](CCCCN)NC(=O)[C@H](CCC(=O)O)NC(=O)[C@H](CCCCN)NC(=O)[C@H](CC(C)C)NC(=O)[C@H](Cc2c[nH]c3ccccc23)NC1=O (H-GAMECWLKEKECKQAGGGGK(5FAM)-NH2; linker 5-12 via CH2CONH(CH2)4NHCOCH2) |
| 116 µM | 445 µM | CC[C@H](C)[C@H](NC(=O)[C@H](CCCCN)NC(=O)[C@H](CS)NC(=O)[C@H](CCC(=O)O)NC(=O)[C@H](CCC(N)=O)NC(=O)[C@H](CCC(=O)O)NC(=O)[C@H](CCCCN)NC(=O)[C@H](CC(C)C)NC(=O)[C@H](Cc1c[nH]c2ccccc12)NC(=O)[C@H](CS)NC(=O)[C@H](CCC(=O)O)NC(=O)[C@H](CCSC)NC(=O)[C@H](C)NC(=O)CN)C(=O)N[C@@H](C)C(=O)NCC(=O)NCC(=O)NCC(=O)NCC(=O)N[C@@H](CCCCNC(=O)c1ccc2c(c1)C(=O)OC21c2ccc(O)cc2Oc2cc(O)ccc21)C(N)=O (H-GAMECWLKEQECKIAGGGGK(5FAM)-NH2) |
| 553 µM | – | CC(C)C[C@H](NC(=O)[C@H](CCC(=O)O)NC(=O)[C@H](CCCCN)NC(=O)[C@H](CC(N)=O)NC(=O)[C@@H](NC(=O)[C@H](CS)NC(=O)[C@H](CCC(=O)O)NC(=O)[C@H](Cc1c[nH]c2ccccc12)NC(=O)[C@H](C)NC(=O)CN)[C@@H](C)O)C(=O)N[C@@H](Cc1c[nH]c2ccccc12)C(=O)N[C@@H](CS)C(=O)N[C@@H](CCCCN)C(=O)N[C@@H](CCC(N)=O)C(=O)N[C@@H](C)C(=O)NCC(=O)NCC(=O)NCC(=O)NCC(=O)N[C@@H](CCCCNC(=O)c1ccc2c(c1)C(=O)OC21c2ccc(O)cc2Oc2cc(O)ccc21)C(N)=O (H-GAWECTNKELWCKQAGGGGK(5FAM)-NH2) |
